target: T1, Protein deacetylase HDAC6 (Homo sapiens) (UniProt Q9UBN7); experiment: Inhibition of full length HDAC6 (unknown origin) extracted from Sf9 insect cells at 10 uM preincubated for 60 mins followed by substrate addition and measured after 20 mins by luminescence based HDAC-GloTM I/II assay relative to control; assay type: cell-free; details: time 80.0 min
T1 sequence (whole entry): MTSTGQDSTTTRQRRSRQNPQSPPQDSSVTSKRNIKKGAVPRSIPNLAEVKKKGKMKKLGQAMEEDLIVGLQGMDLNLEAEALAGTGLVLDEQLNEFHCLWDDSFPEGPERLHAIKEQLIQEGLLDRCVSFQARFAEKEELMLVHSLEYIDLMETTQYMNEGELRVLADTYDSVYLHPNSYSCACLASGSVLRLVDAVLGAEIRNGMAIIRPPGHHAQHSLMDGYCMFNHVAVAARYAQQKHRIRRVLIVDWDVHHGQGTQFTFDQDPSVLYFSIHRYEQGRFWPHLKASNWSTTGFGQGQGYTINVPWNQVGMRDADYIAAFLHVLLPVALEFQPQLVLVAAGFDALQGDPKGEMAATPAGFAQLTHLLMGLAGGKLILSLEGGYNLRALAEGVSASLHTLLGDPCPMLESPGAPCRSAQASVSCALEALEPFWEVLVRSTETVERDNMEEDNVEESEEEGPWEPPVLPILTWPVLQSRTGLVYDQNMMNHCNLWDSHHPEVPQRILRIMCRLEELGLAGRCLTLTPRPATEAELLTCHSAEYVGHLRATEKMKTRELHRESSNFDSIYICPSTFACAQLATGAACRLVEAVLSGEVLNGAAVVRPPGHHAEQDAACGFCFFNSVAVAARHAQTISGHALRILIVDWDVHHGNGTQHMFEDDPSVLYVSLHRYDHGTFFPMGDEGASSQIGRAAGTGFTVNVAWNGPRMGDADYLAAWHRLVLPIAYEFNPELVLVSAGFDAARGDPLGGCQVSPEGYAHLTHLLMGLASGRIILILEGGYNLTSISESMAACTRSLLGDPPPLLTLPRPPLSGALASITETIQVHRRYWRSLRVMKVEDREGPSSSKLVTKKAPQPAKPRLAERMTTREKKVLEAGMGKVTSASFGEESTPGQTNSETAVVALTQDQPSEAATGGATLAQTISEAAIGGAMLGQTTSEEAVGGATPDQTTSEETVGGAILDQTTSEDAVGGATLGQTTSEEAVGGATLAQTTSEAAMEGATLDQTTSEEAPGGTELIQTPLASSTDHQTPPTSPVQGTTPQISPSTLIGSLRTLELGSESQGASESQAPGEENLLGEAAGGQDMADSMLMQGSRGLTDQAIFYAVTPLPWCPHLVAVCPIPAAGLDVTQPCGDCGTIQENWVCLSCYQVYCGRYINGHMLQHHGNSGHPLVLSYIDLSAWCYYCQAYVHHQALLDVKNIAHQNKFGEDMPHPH

Going from O=C1c2cc(-c3nnc(C(F)F)o3)ccc2CN1[C@H](c1ccc(F)c(F)c1)[C@@H](O)c1ccccn1 to O=C1c2cc(-c3nnc(C(F)F)o3)ccc2CN1[C@H](c1cccc(F)c1)[C@@H](O)c1ccccn1 (racemic), the inhibition rises from 99% to 100%.

Going from O=C1c2cc(-c3nnc(C(F)F)o3)ccc2CN1[C@H](c1cnccn1)[C@@H](O)c1cccc(Cl)c1 to O=C1c2cc(-c3nnc(C(F)F)o3)ccc2CN1[C@H](c1cccnn1)[C@@H](O)c1cccc(Cl)c1, the inhibition rises from 100% to 101%.

First: O=C1c2cc(-c3nnc(C(F)F)o3)ccc2CN1[C@H](c1ccc(F)cc1)[C@@H](O)C1CCOCC1 (racemic)
Second: O=C1c2cc(-c3nnc(C(F)F)o3)ccc2CN1[C@H](C1CC1)[C@@H](O)c1cccc(F)c1
The inhibition of the first is lower: 99% for the first, 100% for the second.

Compared with O=C1c2cc(-c3nnc(C(F)F)o3)ccc2CN1[C@H](C1CC1)[C@@H](O)c1ncccn1, O=C1c2cc(-c3nnc(C(F)F)o3)ccc2CN1[C@H](C1CC1)[C@@H](O)c1ccccn1 is higher in inhibition: 96% for the first, 100% for the second.

Compared with O=C1c2cc(-c3nnc(C(F)F)o3)ccc2CN1[C@H](c1ccccn1)[C@@H](O)c1ccccn1, O=C1c2cc(-c3nnc(C(F)F)o3)ccc2CN1[C@@H](c1ccccn1)[C@H](O)c1ccccn1 is lower in inhibition: 101% for the first, 100% for the second.

O=C1c2cc(-c3nnc(C(F)F)o3)ccc2CN1[C@H](C1CC1)[C@@H](O)c1ccc(F)cn1 and O=C1c2cc(-c3nnc(C(F)F)o3)ccc2CN1[C@H](C1CCC(F)(F)CC1)[C@@H](O)c1ccc(F)nc1 (racemic) are the same in inhibition: 100% for the first, 100% for the second.

O=C1c2cc(-c3nnc(C(F)F)o3)ccc2CN1[C@H](c1ccc(F)cc1)[C@@H](O)c1ccc(F)nc1 and O=C1c2cc(-c3nnc(C(F)F)o3)ccc2CN1[C@H](c1ccccn1)[C@@H](O)c1ccc(C(F)(F)F)cn1 are the same in inhibition: 99% for the first, 99% for the second.
